# From US20260262643A1, “HERBICIDAL BENZOXAZINES” (FMC CORPORATION, priority 2022, published 2026)
# Columns and labels:
# [1] = test system: oat, wild; test: Test C postemergence; assay type: in vivo, Avena fatua; details: 10 days
# Description: (§1) Seeds of plant species selected from barnyardgrass (Echinochloa crusgalli), blackgrass (Alopecurus myosuroides), corn (Zea mays), foxtail, giant (giant foxtail, Setaria faberi), green foxtail (Setaria viridis), goosegrass (Eleusine indica), kochia (Bassia scoparia), oat, wild (wild oat, Avena fatua), pigweed, palmer (palmer amaranth, palmer pigweed, Amaranthus palmeri), Pigweed, Redroot (redroot pigweed, Amaranthus retroflexus), ragweed (common ragweed, Ambrosia artemisiifolia), ryegrass, Italian ([…] ryegrass, Lolium multiflorum), soybean (Glycine max), and wheat (Triticum aestivum) were planted into a blend of loam soil and sand and treated preemergence with a directed soil spray using test chemicals formulated in a non-phytotoxic solvent mixture which included a surfactant. At the same time, plants selected from these crops and weed species and also galium (catchweed bedstraw, Galium aparine) and horseweed (Erigeron canadensis) were planted in pots containing the same blend of loam soil and sand and treated with postemergence applications of test chemicals formulated in the same manner. Plants ranged in height from 2 to 10 cm and were in the one- to two-leaf stage for the postemergence treatment. Treated plants and untreated controls were maintained in a greenhouse for 10 days, after which time all treated plants were compared to untreated controls and visually evaluated for injury. Plant response ratings, summarized in Table C, are based on a 0 to 100 scale where 0 is no effect and 100 is complete control. A dash (-) response means no test result.
# [2] = test system: green foxtail; test: Test C preemergence; assay type: in vivo, Setaria viridis; details: 0 to 100 scale (0 no effect, 100 complete control); for Foxtail, Green plant response rating: preemergence; for Plant response rating, Foxtail, Green: Preemergence, visual rating after 10 days
# Procedure, shortened: (§2)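 Pre: seeds in loam/sand, directed soil spray. Post: 1–2 leaf plants, 2–10 cm. Cmpd in non-phytotoxic solvent + surfactant. Greenhouse 10 d; visual rating vs untreated, 0 = none, 100 = complete control.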
# [3] = test system: ragweed; test: Test C preemergence; assay type: in vivo, Ambrosia artemisiifolia; details: 0 to 100 scale (0 no effect, 100 complete control); for Ragweed plant response rating: preemergence; for Plant response rating, Ragweed: Preemergence, visual rating after 10 days
# Procedure, shortened: as §2
# [4] = test system: barnyardgrass; test: Test C postemergence; assay type: in vivo, Echinochloa crusgalli
# Procedure, shortened: as §2
# [5] = test system: green foxtail; test: Test C postemergence; assay type: in vivo, Setaria viridis; details: 10 days
# Procedure, shortened: as §2
# [6] = test system: blackgrass; test: Test C postemergence; assay type: in vivo, Alopecurus myosuroides; details: 10 days
# Procedure, shortened: as §2
# [7] = test system: wheat; test: Test C preemergence; assay type: in vivo, Triticum aestivum; details: 0 to 100 scale (0 no effect, 100 complete control); for Wheat plant response rating: preemergence
# Description: as §1
# [8] = test system: ragweed; test: Test C postemergence; assay type: in vivo, Ambrosia artemisiifolia; details: 10 days
# Procedure, shortened: as §2
# [9] = test system: kochia; test: Test C preemergence; assay type: in vivo, Bassia scoparia; details: 0 to 100 scale (0 no effect, 100 complete control); for Kochia plant response rating: preemergence; for Plant response rating, Kochia: Preemergence, visual rating after 10 days
# Procedure, shortened: as §2
# [10] = test system: wheat; test: Test C postemergence; assay type: in vivo, Triticum aestivum; details: 10 days
# Description: as §1
# [11] = test system: soybean; test: Test C postemergence; assay type: in vivo, Glycine max; details: 10 days
# Description: as §1
# [12] = test system: barnyardgrass; test: Test C preemergence; assay type: in vivo, Echinochloa crusgalli; details: 0 to 100 scale (0 no effect, 100 complete control); for Barnyardgrass plant response rating: preemergence; for Plant response rating, Barnyardgrass: Preemergence, visual rating after 10 days
# Procedure, shortened: as §2
# [13] = test system: corn; test: Test C postemergence; assay type: in vivo, Zea mays; details: 10 days
# Description: as §1
# [14] = test system: blackgrass; test: Test C preemergence; assay type: in vivo, Alopecurus myosuroides; details: 0 to 100 scale (0 no effect, 100 complete control); for Blackgrass plant response rating: preemergence; for Plant response rating, Blackgrass: Preemergence, visual rating after 10 days
# Procedure, shortened: as §2
# [15] = test system: kochia; test: Test C postemergence; assay type: in vivo, Bassia scoparia; details: 10 days
# Procedure, shortened: as §2
# [16] = test system: ryegrass, Italian; test: Test C preemergence; assay type: in vivo, Lolium multiflorum; details: 0 to 100 scale (0 no effect, 100 complete control); for Ryegrass, Italian plant response rating: preemergence; for Plant response rating, Ryegrass, Italian: Preemergence, visual rating after 10 days
# Procedure, shortened: as §2
# [17] = test system: oat, wild; test: Test C preemergence; assay type: in vivo, Avena fatua; details: 500 g ai/ha, preemergence; 0 to 100 scale (0 no effect, 100 complete control)
# Description: as §1
# [18] = test system: corn; test: Test C preemergence; assay type: in vivo, Zea mays; details: 0 to 100 scale (0 no effect, 100 complete control); for Corn plant response rating: preemergence; for Plant response rating, Corn: Preemergence, visual rating after 10 days
# Description: as §1
# [19] = test system: soybean; test: Test C preemergence; assay type: in vivo, Glycine max; details: 0 to 100 scale (0 no effect, 100 complete control); for Soybean plant response rating: preemergence
# Description: as §1
# [20] = test system: horseweed; test: Test C postemergence; assay type: in vivo, Erigeron canadensis; details: 10 days
# Procedure, shortened: as §2
# [21] = test system: pigweed, palmer; test: Test C postemergence; assay type: in vivo, Amaranthus palmeri; details: 10 days
# Procedure, shortened: as §2
# [22] = test system: ryegrass, Italian; test: Test C postemergence; assay type: in vivo, Lolium multiflorum; details: 10 days
# Procedure, shortened: as §2
# [23] = test system: pigweed, palmer; test: Test C preemergence; assay type: in vivo, Amaranthus palmeri; details: 0 to 100 scale (0 no effect, 100 complete control); for Pigweed, Palmer plant response rating: preemergence; for Plant response rating, Pigweed, Palmer: Preemergence, visual rating after 10 days
# Procedure, shortened: as §2
# [24] = test system: galium; test: Test C postemergence; assay type: in vivo, Galium aparine; details: 10 days
# Procedure, shortened: as §2
# [25] = Postemergence, 125 g ai/ha, 0 to 100 scale (0 no effect, 100 complete control)
# [26] = Postemergence, 1000 g ai/ha, visual 0 to 100 scale (0 no effect, 100 complete control)
# [27] = 125 g ai/ha, postemergence, 0 to 100 scale, 0 no effect, 100 complete control
# [28] = Postemergence, 500 g ai/ha, visual 0 to 100 scale (0 no effect, 100 complete control)
# [29] = Preemergence, 500 g ai/ha, visual rating after 10 days
compound,measurement,setting,value
CCOC[C@H]1CN(C(=O)c2cc(-n3cnc(C(C)C)n3)cc3c2OCO3)c2cccc(Cl)c2O1 [40 0],"Plant response rating, Oat, Wild",[1]; [25],0
same,"Foxtail, Green plant response rating",[2]; 500 g ai/ha,100
same,Ragweed plant response rating,[3]; 500 g ai/ha,70
same,"Plant response rating, Barnyardgrass","[4]; Postemergence, 125 g ai/ha, 0 to 100 scale (0 no effect, 100 complete control), 10 days",30
same,"Plant response rating, Foxtail, Green",[5]; [25],20
same,"Plant response rating, Blackgrass",[6]; [25],40
same,Wheat plant response rating,[7]; 500 g ai/ha,40
same,"Plant response rating, Ragweed",[8]; [25],60
same,Kochia plant response rating,[9]; 500 g ai/ha,90
same,"Plant response rating, Wheat",[10]; [25],20
same,"Plant response rating, Soybean",[11]; [25],20
same,Barnyardgrass plant response rating,[12]; 500 g ai/ha,100
same,"Plant response rating, Corn",[13]; [25],30
same,Blackgrass plant response rating,[14]; 500 g ai/ha,50
same,"Plant response rating, Kochia",[15]; [25],70
same,"Ryegrass, Italian plant response rating",[16]; 500 g ai/ha,90
same,"Oat, Wild plant response rating",[17],30
same,Corn plant response rating,[18]; 500 g ai/ha,0
same,Soybean plant response rating,[19]; 500 g ai/ha,100
same,"Plant response rating, Horseweed",[20]; [25],40
same,"Plant response rating, Pigweed, Palmer",[21]; [25],100
same,"Plant response rating, Ryegrass, Italian",[22]; [25],0
same,"Pigweed, Palmer plant response rating",[23]; 500 g ai/ha,100
C[C@H]1CN(C(=O)c2cccc(-c3cnnn3C)c2)c2cccc(Cl)c2O1 [Compound 239],"Plant response rating, Foxtail, Green",[2]; 1000 g ai/ha,100
same,"Plant response rating, Ragweed",[3]; 1000 g ai/ha,0
same,"Plant response rating, Barnyardgrass","[4]; Postemergence, 1000 g ai/ha, 0 to 100 scale, 0 no effect, 100 complete control",30
same,"Plant response rating, Galium",[24]; [26],70
same,"Plant response rating, Foxtail, Green",[5]; [26],30
same,"Plant response rating, Blackgrass",[6]; [26],10
same,"Plant response rating, Ragweed",[8]; [26],50
same,"Plant response rating, Kochia",[9]; 1000 g ai/ha,30
same,"Plant response rating, Barnyardgrass",[12]; 1000 g ai/ha,50
same,"Plant response rating, Corn",[13]; [26],0
same,"Plant response rating, Blackgrass",[14]; 1000 g ai/ha,30
same,"Plant response rating, Kochia",[15]; [26],40
same,"Plant response rating, Ryegrass, Italian",[16]; 1000 g ai/ha,70
same,"Plant response rating, Corn",[18]; 1000 g ai/ha,0
same,"Plant response rating, Horseweed",[20]; [26],30
same,"Plant response rating, Pigweed, Palmer",[21]; [26],70
same,"Plant response rating, Ryegrass, Italian",[22]; [26],0
same,"Plant response rating, Pigweed, Palmer",[23]; 1000 g ai/ha,80
CCc1ncn(-c2cc(OC)cc(C(=O)N3C[C@H](C)Oc4c(Cl)cccc43)c2)n1 [Compound 164],"Plant response rating, Oat, Wild",[1]; [27],30
same,"Plant response rating, Oat, Wild",[1]; [28],50
same,"Plant response rating, Foxtail, Green",[2]; 500 g ai/ha,100
same,"Foxtail, Green plant response rating","[2]; Test C, 125 g ai/ha",100
same,"Plant response rating, Ragweed",[3]; 500 g ai/ha,60
same,Ragweed plant response rating,"[3]; Test C, 125 g ai/ha",70
same,"Plant response rating, Barnyardgrass","[4]; 125 g ai/ha, postemergence, 10 days, 0 to 100 scale, 0 no effect, 100 complete control",40
same,"Plant response rating, Barnyardgrass","[4]; Postemergence, 500 g ai/ha, 10 days, visual 0 to 100 scale (0 no effect, 100 complete control)",50
same,"Plant response rating, Galium",[24]; [27],100
same,"Plant response rating, Galium",[24]; [28],100
same,"Plant response rating, Foxtail, Green",[5]; [27],50
same,"Plant response rating, Foxtail, Green",[5]; [28],80
same,"Plant response rating, Blackgrass",[6]; [27],70
same,"Plant response rating, Blackgrass",[6]; [28],90
same,"Plant response rating, Wheat",[7]; [29],60
same,Wheat plant response rating,"[7]; Test C, 125 g ai/ha",20
same,"Plant response rating, Ragweed",[8]; [27],50
same,"Plant response rating, Ragweed",[8]; [28],90
same,"Plant response rating, Kochia",[9]; 500 g ai/ha,100
same,Kochia plant response rating,"[9]; Test C, 125 g ai/ha",40
same,"Plant response rating, Wheat",[10]; [27],30
same,"Plant response rating, Wheat",[10]; [28],30
same,"Plant response rating, Soybean",[11]; [27],100
same,"Plant response rating, Soybean",[11]; [28],100
same,Barnyardgrass plant response rating,[12]; 125 g ai/ha,50
same,"Plant response rating, Barnyardgrass",[12]; 500 g ai/ha,100
same,"Plant response rating, Corn",[13]; [27],30
same,"Plant response rating, Corn",[13]; [28],90
same,"Plant response rating, Blackgrass",[14]; 500 g ai/ha,80
same,Blackgrass plant response rating,"[14]; Test C, 125 g ai/ha",50
same,"Plant response rating, Kochia",[15]; [27],80
same,"Plant response rating, Kochia",[15]; [28],90
same,"Plant response rating, Ryegrass, Italian",[16]; 500 g ai/ha,100
same,"Ryegrass, Italian plant response rating","[16]; Test C, 125 g ai/ha",90
same,"Plant response rating, Corn",[18]; 500 g ai/ha,30
same,Corn plant response rating,"[18]; Test C, 125 g ai/ha",30
same,"Plant response rating, Soybean",[19]; [29],100
same,Soybean plant response rating,"[19]; Test C, 125 g ai/ha",90
same,"Plant response rating, Horseweed",[20]; [27],20
same,"Plant response rating, Horseweed",[20]; [28],50
same,"Plant response rating, Pigweed, Palmer",[21]; [27],90
same,"Plant response rating, Pigweed, Palmer",[21]; [28],100
same,"Plant response rating, Ryegrass, Italian",[22]; [27],50
same,"Plant response rating, Ryegrass, Italian",[22]; [28],90
same,"Plant response rating, Pigweed, Palmer",[23]; 500 g ai/ha,100
same,"Pigweed, Palmer plant response rating","[23]; Test C, 125 g ai/ha",100
